Experimental data taken from US20260069594A1, “USE OF AN AGENT CAPABLE OF INHIBITING THE ACTIVATION OF MAIT CELLS FOR THE TREATMENT OF RHEUMATOID ARTHRITIS” (INSTITUT NATIONAL DE LA SANTÉ ET DE LA RECHERCHE MÉDICALE, priority 2022, published 2026).

Legend:
MAIT cells = assay: mBSA-induced arthritis in wild type mice treated with Ac6FP or PBS; assay type: in vivo; conditions: wild type male mice, intraperitoneal twice a week
Excerpt: Arthritis was induced by intra-articular injection of methylated bovine serum albumin (mBSA) in MR1^−/− (depleted in MAIT cells) and wild type C57BL/6 mice, previously immunized with mBSA. We included 9 mice in each group, only females, which were 6 to 8 weeks old. Mice were daily evaluated for signs of joint inflammation, assessed by measuring tarsal thickness and scored on a scale of 0-4, where 0=no change, 1=local swelling and redness of digits, 2=mild swelling and redness, 3=severe swelling and redness, 4=necrosis. Mice were sacrificed on day 8, and the paws were separated, fixed with 4% paraformaldehyde and decalcified for histopathological assessment. All mice developed arthritis, with a peak of inflammation at day 1.
Arthritis was induced by intra-articular injection of methylated bovine serum albumin (mBSA) in wild type mice, treated with Acetyl-6-formylpterin (Ac6FP), a non-activating ligand of MAIT cells or PBS, previously immunized with mBSA. Ac6FP or PBS were injected twice a week in intraperitoneal. We included 6 wild type mice in each group, only males, which were 8 weeks old. Mice were daily evaluated as described previously. All mice developed arthritis, with a peak of inflammation at day 1.
Values are the mean+/−SEM of 6 mice in each group. Test: Student T test. Ac6FP: Acetyl-6-formylpterin. AUC: Area Under Curve. […]

rheumatoid arthritis = conditions: cited from earlier work

Structure (SMILES) | clinical score (scale 0-4) compared to PBS group (MAIT cells; daily evaluation) | area under curve (AUC) of clinical score, median (MAIT cells; n=6, vs. 5.5 in PBS group, p=0.07) | patients reaching remission states (rheumatoid arthritis; RA patients at 6-12 months) | patients reaching low disease activity states (rheumatoid arthritis; early RA patients, with or without corticosteroids)
CC(=O)Nc1nc2ncc(C=O)nc2c(=O)[nH]1 [Ac6FP, Acetyl-6-formylpterin] | lower clinical score | 3 | – | –
CN(Cc1cnc2nc(N)nc(N)c2n1)c1ccc(C(=O)N[C@@H](CCC(=O)O)C(=O)O)cc1 [MTX, methotrexate] | – | – | 10-20% | 25-50%
